What follows are cell lines tested with CCN1CCN(c2ccc(Nc3cc(N(C)C(=O)Nc4c(Cl)c(OC)cc(OC)c4Cl)ncn3)cc2)CC1 [BGJ398] (assay: relative viability (nuclei count vs DMSO), 5 days (fraction); higher = more cells survive). Conditions: 0.01 µM.
Method in brief: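 Viability is treated-well nuclei as a fraction of vehicle-well nuclei, reported as the median across plates. Before counting, lung cancer cell lines were kept overnight at 37 °C in 1536-well plates, pinned with five √10-spaced library-drug doses on vehicle-anchored plates, and left 5 days without medium change, then fixed, permeabilised and Hoechst-stained in one step, imaged at 4× and counted by MetaXpress. A plate passed only if control CV was below 25% and at least one doubling occurred.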

Point of comparison: HARA, relative viability 1.02. Against it:
- NCI-H2085 — lower, 0.951
- Calu-6 — lower, 0.986
- HCC-366 — lower, 1.01
- NCI-H1666 — lower, 1
- NCI-H596 — higher, 1.13
- LK-2 — lower, 0.867
- NCI-H2087 — lower, 1.01
- SK-MES-1 — lower, 0.941
- H3255 — lower, 0.945
- COR-L23 — lower, 0.96
- COR-L 105 — lower, 0.875
- IA-LM — lower, 0.918
- LOU-NH91 — lower, 0.935
- NCI-H2170 — lower, 0.988
- NCI-H2405 — higher, 1.04
- HOP-62 — lower, 0.983
- HCC-44 — lower, 0.998
- A549 — lower, 0.932
- LU99A — lower, 0.884
- BEN — lower, 0.891
- HCC-78 — lower, 0.881
- NCI-H322M — higher, 1.07
- LCLC-97TM1 — lower, 0.778
- NCI-H2009 — lower, 0.924
- A-427 — lower, 0.985
- NCI-H661 — lower, 0.977
- NCI-H1734 — lower, 0.895
- NCI-H460 — the same, 1.02
- NCI-H2347 — lower, 0.957
- SK-LU-1 — lower, 0.983
- NCI-H1395 — lower, 0.853

Same assay, conditions: 0.03162 µM

Point of comparison: NCI-H596, relative viability 0.931. Against it:
- NCI-H2085 — higher, 1.01
- Calu-6 — higher, 0.988
- HCC-366 — higher, 1.01
- NCI-H1666 — higher, 1.03
- LK-2 — lower, 0.776
- NCI-H2087 — higher, 1.01
- SK-MES-1 — higher, 1.05
- COR-L23 — higher, 1.06
- COR-L 105 — lower, 0.744
- IA-LM — higher, 1.05
- LOU-NH91 — lower, 0.883
- NCI-H2170 — higher, 1.06
- NCI-H2405 — higher, 1.11
- HOP-62 — higher, 1.07
- HCC-44 — higher, 0.986
- A549 — lower, 0.917
- LU99A — higher, 0.95
- BEN — higher, 0.964
- HARA — lower, 0.788
- HCC-78 — lower, 0.911
- NCI-H322M — lower, 0.754
- LCLC-97TM1 — higher, 1.09
- NCI-H2009 — higher, 1.07
- A-427 — higher, 0.979
- NCI-H661 — higher, 0.997
- NCI-H1734 — higher, 1.02
- NCI-H460 — higher, 1.04
- NCI-H2347 — higher, 1.09
- SK-LU-1 — higher, 1.07
- NCI-H1395 — higher, 0.946

Same assay, conditions: 0.1 µM

Point of comparison: H3255, relative viability 1. Against it:
- NCI-H2085 — higher, 1.01
- Calu-6 — higher, 1.05
- HCC-366 — higher, 1.07
- NCI-H1666 — lower, 0.966
- NCI-H596 — lower, 0.978
- LK-2 — lower, 0.638
- NCI-H2087 — lower, 0.966
- SK-MES-1 — higher, 1.05
- COR-L23 — higher, 1.12
- COR-L 105 — lower, 0.961
- IA-LM — lower, 0.974
- LOU-NH91 — lower, 0.971
- NCI-H2170 — higher, 1.1
- NCI-H2405 — lower, 0.99
- HOP-62 — higher, 1.07
- HCC-44 — lower, 0.987
- A549 — higher, 1.03
- LU99A — lower, 0.89
- BEN — lower, 0.947
- HARA — lower, 0.821
- HCC-78 — lower, 0.933
- NCI-H322M — lower, 0.948
- LCLC-97TM1 — higher, 1.02
- NCI-H2009 — lower, 0.994
- A-427 — lower, 0.967
- NCI-H661 — lower, 0.983
- NCI-H1734 — higher, 1.06
- NCI-H460 — higher, 1.11
- NCI-H2347 — higher, 1.06
- SK-LU-1 — higher, 1.22
- NCI-H1395 — lower, 0.847

Same assay, conditions: 0.3162 µM

Point of comparison: NCI-H322M, relative viability 0.815. Against it:
- NCI-H2085 — higher, 0.938
- Calu-6 — higher, 1.02
- HCC-366 — higher, 1.08
- NCI-H1666 — higher, 0.98
- NCI-H596 — higher, 0.92
- LK-2 — lower, 0.399
- NCI-H2087 — higher, 1.08
- SK-MES-1 — higher, 0.981
- H3255 — higher, 0.843
- COR-L23 — higher, 1.02
- COR-L 105 — higher, 0.83
- IA-LM — higher, 0.875
- LOU-NH91 — lower, 0.771
- NCI-H2170 — higher, 1.03
- NCI-H2405 — higher, 1.01
- HOP-62 — higher, 0.982
- HCC-44 — higher, 0.993
- A549 — higher, 0.876
- LU99A — higher, 0.908
- BEN — higher, 0.845
- HARA — lower, 0.719
- HCC-78 — higher, 1.02
- LCLC-97TM1 — higher, 0.962
- NCI-H2009 — higher, 0.974
- A-427 — the same, 0.815
- NCI-H661 — higher, 0.987
- NCI-H1734 — higher, 0.93
- NCI-H460 — higher, 0.984
- NCI-H2347 — higher, 1.04
- SK-LU-1 — higher, 0.978
- NCI-H1395 — lower, 0.589

Same assay, conditions: 1 µM

Point of comparison: HCC-366, relative viability 0.974. Against it:
- NCI-H2085 — higher, 1.03
- Calu-6 — higher, 1.02
- NCI-H1666 — lower, 0.8
- NCI-H596 — lower, 0.8
- LK-2 — lower, 0.263
- NCI-H2087 — higher, 1.09
- SK-MES-1 — higher, 1.01
- H3255 — higher, 0.999
- COR-L23 — higher, 1.09
- COR-L 105 — lower, 0.875
- IA-LM — lower, 0.901
- LOU-NH91 — lower, 0.931
- NCI-H2170 — higher, 1.07
- NCI-H2405 — lower, 0.958
- HOP-62 — higher, 1.02
- HCC-44 — lower, 0.826
- A549 — higher, 0.996
- LU99A — lower, 0.792
- BEN — lower, 0.809
- HARA — lower, 0.602
- HCC-78 — lower, 0.86
- NCI-H322M — higher, 1.02
- LCLC-97TM1 — lower, 0.97
- NCI-H2009 — higher, 1.06
- A-427 — lower, 0.753
- NCI-H661 — lower, 0.914
- NCI-H1734 — higher, 1.05
- NCI-H460 — higher, 0.988
- NCI-H2347 — lower, 0.94
- SK-LU-1 — higher, 1.03
- NCI-H1395 — lower, 0.483
